According to the NIST ThermoML archive (doi:10.1016/j.tca.2016.06.022):
Numbers after ± are expanded uncertainties.

Test: xn = mol fraction of the nth substance listed
Settings: 101 kPa, Liquid, Vibrating tube method

NCCN [ethane-1,2-diamine] + O
mass density (288.15 K, x1 = 0.6361): 945.77 ± 0.51 kg/m3
mass density (288.15 K, x1 = 0.6843): 938.88 ± 0.51 kg/m3
mass density (288.15 K, x1 = 0.7386): 931.34 ± 0.51 kg/m3
mass density (288.15 K, x1 = 0.7954): 924.08 ± 0.51 kg/m3
mass density (288.15 K, x1 = 0.81): 922.08 ± 0.51 kg/m3
mass density (288.15 K, x1 = 0.8505): 917.35 ± 0.51 kg/m3
mass density (288.15 K, x1 = 0.898): 912.03 ± 0.51 kg/m3
mass density (288.15 K, x1 = 0.9282): 908.76 ± 0.51 kg/m3
mass density (288.15 K, x1 = 0.9584): 905.56 ± 0.51 kg/m3
mass density (288.15 K, x1 = 0.9678): 904.59 ± 0.51 kg/m3
mass density (288.15 K, x1 = 0.9793): 903.4 ± 0.51 kg/m3
mass density (288.15 K, x1 = 1): 901.26 ± 0.51 kg/m3
mass density (298.15 K, x1 = 0.002): 996.85 ± 0.5 kg/m3
mass density (298.15 K, x1 = 0.0033): 996.68 ± 0.5 kg/m3
mass density (298.15 K, x1 = 0.0047): 996.5 ± 0.5 kg/m3
mass density (298.15 K, x1 = 0.0072): 996.2 ± 0.5 kg/m3
mass density (298.15 K, x1 = 0.009): 995.97 ± 0.5 kg/m3
mass density (298.15 K, x1 = 0.0123): 995.55 ± 0.5 kg/m3
mass density (298.15 K, x1 = 0.0222): 994.61 ± 0.5 kg/m3
mass density (298.15 K, x1 = 0.0436): 993.31 ± 0.5 kg/m3
mass density (298.15 K, x1 = 0.0609): 992.96 ± 0.5 kg/m3
mass density (298.15 K, x1 = 0.0827): 993.06 ± 0.5 kg/m3
mass density (298.15 K, x1 = 0.106): 993.56 ± 0.5 kg/m3
mass density (298.15 K, x1 = 0.1481): 994.9 ± 0.5 kg/m3
mass density (298.15 K, x1 = 0.2063): 995.33 ± 0.5 kg/m3
mass density (298.15 K, x1 = 0.2513): 993.49 ± 0.5 kg/m3
mass density (298.15 K, x1 = 0.3148): 985.82 ± 0.5 kg/m3
mass density (298.15 K, x1 = 0.3258): 985.17 ± 0.5 kg/m3
mass density (298.15 K, x1 = 0.341): 984.26 ± 0.51 kg/m3
mass density (298.15 K, x1 = 0.4038): 974.96 ± 0.51 kg/m3
mass density (298.15 K, x1 = 0.4489): 967.22 ± 0.51 kg/m3
mass density (298.15 K, x1 = 0.4928): 959.94 ± 0.51 kg/m3
mass density (298.15 K, x1 = 0.5468): 950.96 ± 0.51 kg/m3
mass density (298.15 K, x1 = 0.5907): 943.88 ± 0.51 kg/m3
mass density (298.15 K, x1 = 0.6361): 936.87 ± 0.51 kg/m3
mass density (298.15 K, x1 = 0.6843): 929.8 ± 0.51 kg/m3
mass density (298.15 K, x1 = 0.7386): 922.53 ± 0.51 kg/m3
mass density (298.15 K, x1 = 0.7954): 914.93 ± 0.51 kg/m3
mass density (298.15 K, x1 = 0.81): 912.91 ± 0.51 kg/m3
mass density (298.15 K, x1 = 0.8505): 908.14 ± 0.51 kg/m3
mass density (298.15 K, x1 = 0.898): 902.85 ± 0.51 kg/m3
mass density (298.15 K, x1 = 0.9282): 899.58 ± 0.51 kg/m3
mass density (298.15 K, x1 = 0.9584): 896.29 ± 0.51 kg/m3
mass density (298.15 K, x1 = 0.9678): 895.3 ± 0.51 kg/m3
mass density (298.15 K, x1 = 0.9793): 894.08 ± 0.51 kg/m3
mass density (298.15 K, x1 = 1): 891.9 ± 0.51 kg/m3
mass density (308.15 K, x1 = 0.002): 993.82 ± 0.5 kg/m3
mass density (308.15 K, x1 = 0.0033): 993.64 ± 0.5 kg/m3
mass density (308.15 K, x1 = 0.0047): 993.43 ± 0.5 kg/m3
mass density (308.15 K, x1 = 0.0072): 993.09 ± 0.5 kg/m3
mass density (308.15 K, x1 = 0.009): 992.86 ± 0.5 kg/m3
mass density (308.15 K, x1 = 0.0123): 992.39 ± 0.5 kg/m3
mass density (308.15 K, x1 = 0.0222): 991.25 ± 0.5 kg/m3
mass density (308.15 K, x1 = 0.0436): 989.53 ± 0.5 kg/m3
mass density (308.15 K, x1 = 0.0609): 988.77 ± 0.5 kg/m3
mass density (308.15 K, x1 = 0.0827): 988.38 ± 0.5 kg/m3
mass density (308.15 K, x1 = 0.106): 988.34 ± 0.5 kg/m3
mass density (308.15 K, x1 = 0.1481): 988.68 ± 0.5 kg/m3
mass density (308.15 K, x1 = 0.2063): 987.95 ± 0.5 kg/m3
mass density (308.15 K, x1 = 0.2513): 985.55 ± 0.5 kg/m3
mass density (308.15 K, x1 = 0.3148): 978.7 ± 0.51 kg/m3
mass density (308.15 K, x1 = 0.341): 975.15 ± 0.51 kg/m3
mass density (308.15 K, x1 = 0.4038): 965.9 ± 0.51 kg/m3
mass density (308.15 K, x1 = 0.4489): 958.22 ± 0.51 kg/m3
mass density (308.15 K, x1 = 0.4928): 950.76 ± 0.51 kg/m3
mass density (308.15 K, x1 = 0.5468): 942.44 ± 0.51 kg/m3
mass density (308.15 K, x1 = 0.5907): 934.72 ± 0.51 kg/m3
mass density (308.15 K, x1 = 0.6361): 927.73 ± 0.51 kg/m3
mass density (308.15 K, x1 = 0.6843): 920.72 ± 0.51 kg/m3
mass density (308.15 K, x1 = 0.7386): 913.33 ± 0.51 kg/m3
mass density (308.15 K, x1 = 0.7954): 905.7 ± 0.51 kg/m3
mass density (308.15 K, x1 = 0.81): 903.69 ± 0.51 kg/m3
mass density (308.15 K, x1 = 0.8505): 898.88 ± 0.51 kg/m3
mass density (308.15 K, x1 = 0.898): 893.62 ± 0.51 kg/m3
mass density (308.15 K, x1 = 0.9282): 890.26 ± 0.51 kg/m3
mass density (308.15 K, x1 = 0.9584): 886.94 ± 0.51 kg/m3
mass density (308.15 K, x1 = 0.9678): 885.94 ± 0.51 kg/m3
mass density (308.15 K, x1 = 0.9793): 884.7 ± 0.51 kg/m3
mass density (308.15 K, x1 = 1): 882.49 ± 0.51 kg/m3
mass density (323.15 K, x1 = 0.002): 987.81 ± 0.5 kg/m3
mass density (323.15 K, x1 = 0.0033): 987.61 ± 0.5 kg/m3
mass density (323.15 K, x1 = 0.0047): 987.39 ± 0.5 kg/m3
mass density (323.15 K, x1 = 0.0072): 987 ± 0.5 kg/m3
mass density (323.15 K, x1 = 0.009): 986.75 ± 0.5 kg/m3
mass density (323.15 K, x1 = 0.0123): 986.24 ± 0.5 kg/m3
mass density (323.15 K, x1 = 0.0222): 984.89 ± 0.5 kg/m3
mass density (323.15 K, x1 = 0.0436): 982.66 ± 0.5 kg/m3
mass density (323.15 K, x1 = 0.0609): 981.44 ± 0.5 kg/m3
mass density (323.15 K, x1 = 0.0827): 980.39 ± 0.5 kg/m3
mass density (323.15 K, x1 = 0.106): 979.64 ± 0.5 kg/m3
mass density (323.15 K, x1 = 0.1481): 978.7 ± 0.5 kg/m3
mass density (323.15 K, x1 = 0.2063): 976.41 ± 0.5 kg/m3
mass density (323.15 K, x1 = 0.2513): 973.14 ± 0.51 kg/m3
mass density (323.15 K, x1 = 0.3148): 964.84 ± 0.51 kg/m3
mass density (323.15 K, x1 = 0.341): 961.96 ± 0.51 kg/m3
mass density (323.15 K, x1 = 0.4038): 952.12 ± 0.51 kg/m3
mass density (323.15 K, x1 = 0.4489): 944.49 ± 0.51 kg/m3
mass density (323.15 K, x1 = 0.4928): 936.96 ± 0.51 kg/m3
mass density (323.15 K, x1 = 0.5468): 928.02 ± 0.51 kg/m3
mass density (323.15 K, x1 = 0.5907): 920.79 ± 0.51 kg/m3
mass density (323.15 K, x1 = 0.6361): 913.79 ± 0.51 kg/m3
mass density (323.15 K, x1 = 0.6843): 906.8 ± 0.51 kg/m3
mass density (323.15 K, x1 = 0.7386): 899.31 ± 0.51 kg/m3
mass density (323.15 K, x1 = 0.7954): 891.79 ± 0.51 kg/m3
mass density (323.15 K, x1 = 0.81): 889.66 ± 0.51 kg/m3
mass density (323.15 K, x1 = 0.8505): 884.84 ± 0.51 kg/m3
mass density (323.15 K, x1 = 0.898): 879.53 ± 0.51 kg/m3
mass density (323.15 K, x1 = 0.9282): 876.1 ± 0.51 kg/m3
mass density (323.15 K, x1 = 0.9584): 872.76 ± 0.51 kg/m3
mass density (323.15 K, x1 = 0.9678): 871.75 ± 0.51 kg/m3
mass density (323.15 K, x1 = 0.9793): 870.49 ± 0.52 kg/m3
mass density (323.15 K, x1 = 1): 868.23 ± 0.51 kg/m3
mass density (333.15 K, x1 = 0.002): 982.96 ± 0.5 kg/m3
mass density (333.15 K, x1 = 0.0033): 982.75 ± 0.5 kg/m3
mass density (333.15 K, x1 = 0.0047): 982.53 ± 0.5 kg/m3
mass density (333.15 K, x1 = 0.0072): 982.12 ± 0.5 kg/m3
mass density (333.15 K, x1 = 0.009): 981.85 ± 0.5 kg/m3
mass density (333.15 K, x1 = 0.0123): 981.3 ± 0.5 kg/m3
mass density (333.15 K, x1 = 0.0222): 979.82 ± 0.5 kg/m3
mass density (333.15 K, x1 = 0.0436): 977.37 ± 0.5 kg/m3
mass density (333.15 K, x1 = 0.0609): 975.89 ± 0.5 kg/m3
mass density (333.15 K, x1 = 0.0827): 974.47 ± 0.5 kg/m3
mass density (333.15 K, x1 = 0.106): 973.29 ± 0.5 kg/m3
mass density (333.15 K, x1 = 0.1481): 971.62 ± 0.5 kg/m3
mass density (333.15 K, x1 = 0.2063): 968.4 ± 0.51 kg/m3
mass density (333.15 K, x1 = 0.2513): 964.58 ± 0.51 kg/m3
mass density (333.15 K, x1 = 0.3148): 956.48 ± 0.51 kg/m3
mass density (333.15 K, x1 = 0.341): 952.88 ± 0.51 kg/m3
mass density (333.15 K, x1 = 0.4038): 942.8 ± 0.51 kg/m3
mass density (333.15 K, x1 = 0.4489): 935.14 ± 0.51 kg/m3
mass density (333.15 K, x1 = 0.4928): 927.53 ± 0.51 kg/m3
mass density (333.15 K, x1 = 0.5468): 918.58 ± 0.51 kg/m3
mass density (333.15 K, x1 = 0.5907): 911.42 ± 0.51 kg/m3
mass density (333.15 K, x1 = 0.6361): 904.37 ± 0.51 kg/m3
mass density (333.15 K, x1 = 0.6843): 897.38 ± 0.51 kg/m3
mass density (333.15 K, x1 = 0.7386): 889.84 ± 0.51 kg/m3
mass density (333.15 K, x1 = 0.7954): 882.31 ± 0.51 kg/m3
mass density (333.15 K, x1 = 0.81): 880.16 ± 0.51 kg/m3
mass density (333.15 K, x1 = 0.8505): 875.33 ± 0.51 kg/m3
mass density (333.15 K, x1 = 0.898): 870.05 ± 0.51 kg/m3
mass density (333.15 K, x1 = 0.9282): 866.59 ± 0.51 kg/m3
mass density (333.15 K, x1 = 0.9584): 863.2 ± 0.52 kg/m3
mass density (333.15 K, x1 = 0.9678): 862.17 ± 0.52 kg/m3
mass density (333.15 K, x1 = 0.9793): 860.9 ± 0.52 kg/m3
mass density (333.15 K, x1 = 1): 858.6 ± 0.52 kg/m3
